Measurements published in patent publication US20260234188A1, “CHEMOKINE-BINDING PEPTIDES” (Oxford University Innovation Limited, priority 2022, published 2026).
“Also recorded” adds a separate entry of the source. Ends that are not written are not given here.

How the values were obtained:
[1] = tested on: panel of up to 42 human chemokines; assay: Phage-display next generation sequencing screen of overlapping hexadecapeptide libraries, chemokines displayed on streptavidin beads; format: binding; settings: log2E greater than 5, chemokines named by first part of UniProt Entry Name, peptides binding complement C5a (control) excluded;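 note: chemokine listed when log2 fold enrichment exceeds 5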
Summary of the method: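 Phage-display libraries of 55662 overlapping hexadecapeptides from tick and viral chemokine-binding proteins, human chemokines and chemokine receptors screened against up to 42 human chemokines, with hits found by next-generation sequencing. Peptides mapped to parent-protein position with log2 fold enrichment; regions of interest where cumulative residue log2 E exceeds the 95% upper CI of the protein median.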

[2] = target: T1, CXCL10 (Homo sapiens, UniProt P02778); assay: CXCL10-induced activated T-cell migration, transwell assay; format: cell-based; settings: peptide 10 μM, chemokine at EC80
T1 construct: purchased Peprotech
T1 sequence (P02778 22-98): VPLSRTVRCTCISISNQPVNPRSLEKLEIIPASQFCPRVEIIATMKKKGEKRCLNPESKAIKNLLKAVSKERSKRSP
Experimental: (§1) FIG. 2. […] BK1.2 is described in (Darlot, 2020). […] Chemokines used are indicated by the name, followed in parenthesis by the supplier code (P in supplier code indicates Peprotech). […] All experiments were performed at EC80 doses of indicated chemokine. Data are shown as box-whisker plots of three technical and three biological replicates. Statistically significant differences (compared to control, indicated by #), using Dunnett's test with correction for multiple comparisons, are indicated by asterisks: ****=P≤0.0001, ***=P≤0.001, **=P≤0.01, *=P≤0.05.
(§2) FIG. 11. […] Technical replicates are shown as individual data points. […] The response curve (solid blue line) and its 95% confidence interval (grey ribbon) were calculated using a 4-parameter log-logistic plot.
Briefly, cell migration assays use THP1 cells (human monocyte) and primary human buffy coat white cells (consisting of neutrophil granulocytes, monocytes, and lymphocytes), and activated T-cells. THP1 cells and primary monocytes respond to CCL2, CCL3, CCL5, CCL8 and CXCL4, granulocytes to CXCL1 and CXCL8, activated T-cells to CXCL9/10/11. Assays are performed in 96-well Boyden chambers, and migrated cells counted and characterized using and ATTUNE Flow Cytometer as described. […]

[3] = target: T2, CXCL11 (Homo sapiens, UniProt O14625); assay: CXCL11-induced activated T-cell migration, transwell assay; format: cell-based; settings: peptide 10 μM, chemokine at EC80
T2 construct: purchased Peprotech
T2 sequence (O14625 22-94): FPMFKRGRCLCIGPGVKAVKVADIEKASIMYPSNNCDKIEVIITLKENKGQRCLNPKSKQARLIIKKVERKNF
Experimental: as §1
(§3) Briefly, cell migration assays use THP1 cells (human monocyte) and primary human buffy coat white cells (consisting of neutrophil granulocytes, monocytes, and lymphocytes), and activated T-cells. THP1 cells and primary monocytes respond to CCL2, CCL3, CCL5, CCL8 and CXCL4, granulocytes to CXCL1 and CXCL8, activated T-cells to CXCL9/10/11. Assays are performed in 96-well Boyden chambers, and migrated cells counted and characterized using and ATTUNE Flow Cytometer as described. Triplicate assays are performed at the EC80 dose of each chemokine at 10 μM peptide concentration.
(§4) The J:CXCR1 cell line was generated by transfecting Jurkat cells by electroporation with PvuI-linearized plasmid D1398 and selecting with blasticidin (Sigma-Aldrich, Cat #203350, […]). […] J:CXCR1 cells were cultured in RPMI-1640 media (Gibco), supplemented with 10% FBS and 5 mM L-Glutamine with blasticidin. For J:CXCR1 migration assays, 300,000 cells/well were added to the top chamber of a 3 μm Transwell insert (Corning) in 50 μL of migration media (RPMI-1640, 0.5% FBS, 4 mM L-Glutamine, 0.05% DMSO). The bottom chamber contained 150 μL of chemokine, with or without peptide. Cells were migrated at 37° C. in 5% CO2 for 4 hours. The plate was incubated on a shaking platform for 10 minutes, 800 rpm, at 37° C., and 150 μL from the bottom of the plate transferred into a U-bottom plate containing 50 μL of migration media. Cell counts were determined by Attune NxT Flow Cytometer Plate Reader (ThermoFisher), based on cell size parameters FSC-H/SSC-H. Experiments were performed in 3 technical and 3 biological replicates. THP-1 migration assays were carried out using methods known in the art. Activated T-cell assays were carried out using methods known in the art, with the following modifications in the isolation process. Peripheral blood cells were obtained from leucocyte cones (NHS Blood Transfusion Services), following which, T-cells were isolated using two rounds of human CD8+ T-cell isolation kit (480011, BioLegend). At day 10 after activation, T-cells were frozen at 20 E6 cells/ml in TexMACS medium supplemented with 10% DMSO (D2650, Sigma) in liquid nitrogen. Prior to use, activated T-cells were recovered for 24 hours in TexMACs medium at 0.3 E6 cells/ml and incubated at 37° C. in 5% CO2. Chemokine sources are described in Supplementary information Table 3. Statistical significances between control experimental groups was evaluated using Dunnett's test. IC50 experiments were performed at the EC80 dose of chemokine. EC80 was calculated by fitting a chemokine dose-response curve with 3 parameters (fixing the top to 100%). IC50 was calculated by fitting an inhibitor response curve with 4 parameters.

[4] = target: T3, CXCL9 (Homo sapiens, UniProt Q07325); assay: CXCL9-induced activated T-cell migration, transwell assay; format: cell-based; settings: peptide 10 μM, chemokine at EC80
T3 construct: purchased Peprotech
T3 sequence (Q07325 23-125): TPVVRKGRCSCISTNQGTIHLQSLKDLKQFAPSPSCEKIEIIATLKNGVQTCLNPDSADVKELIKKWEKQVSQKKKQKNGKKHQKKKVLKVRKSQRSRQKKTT
Experimental: as §1, §3, §4

[5] = target: T4, panel of 25 biotinylated chemokines (Homo sapiens, UniProt P48061); assay: Phage-display screen of HD2 combinatorial mutagenesis library; format: binding; settings: CXCL12
T4 construct: purchased Almac or ProteinFoundry
T4 sequence (P48061 22-89 limits assumed): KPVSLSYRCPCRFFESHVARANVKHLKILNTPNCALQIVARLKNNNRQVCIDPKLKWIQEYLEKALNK
Text: FIG. 20. Phage display-combinatorial mutagenesis. FIG. 20A, Tile-plot (bottom panel) showing impact of selected HD2 mutations on Δlog 2 E for all chemokines studied. Δlog 2 E is the difference in log 2 E between the parental wild-type peptide and the mutant variant following phage-display selection. See methods for a description of the strategy used for selecting individual mutations. FIG. 20B, All possible combinations of 16 selected single mutations (coloured using the Taylor scale) at 11 residue locations were combined to create a phage-display library with 3585 mutation combinations. The library included the parental HD2 sequence and single mutations as well. Library cloning, screening and analysis was performed as described in the examples.
Combinations of different mutations identified by saturation mutagenesis selection were then studied to see if they could result in additive or cooperative effects, allowing further evolution of peptide function in a desired direction. Traditionally, the selection of two or more mutations in combination is guided by knowledge of the structure of the protein-peptide interface. This approach works well when designing agents against a single target where the interface structure has been experimentally characterised but is challenging when designing agents active against multiple targets, where the interface structures have not been experimentally characterised. To systematically identify mutation combinations that work well against multiple structurally related targets we explored the possibility of using phage-display to select combinations of mutations that bind CC or XC classes of chemokines. […]
As CC and XC binding peptides appeared to have a different improving mutation spectrum we selected mutations using an algorithm that optimizes CC and XC improving mutations separately. […] The library quality was assessed by NGS AmpliconEZ (50,000 reads), and 3584 of 3585 inserts were identified. […]

[6] = target: CXCL12 (Homo sapiens, UniProt P48061); format: cell-based; parameters: activity in inhibiting migration of activated T cells in comparison to HD2_Y5W: dose or concentration left out as unconfirmed; settings: peptides final concentration as printed, chemokine at EC80
Chain of CXCL12 (P48061 22-89 limits assumed): as above
Experimental: FIG. 22. Effect of selected combinatorial HD2 mutations on chemotaxis. FIG. 22A. Box-whisker plot showing the effect of the exemplar single and combinatorically mutant (CM) HD2 peptides on activated-T cell (ATC) migration induced by CXCL12. All experiments were performed as at least three technical and three biological replicates, and individual data points are indicated. […] HD2SCR is a scrambled version of HD2. […] Statistically significant differences (compared to control, HD2_Y5W, coloured blue), using Dunnett's test with correction for multiple comparisons, are indicated by asterisks: ****=P≤0.0001, ***=P≤0.001, **=P≤0.01, *=P≤0.05. All comparisons were made to HD2_Y5W, as it is present in CM539, CM452, and CM304. […] Technical replicates are shown as individual data points. […] The response curve (solid blue line) and its 95% confidence interval (grey ribbon) were calculated using a 4-parameter log-logistic plot. The agonist and estimated IC50 (dotted green line) are indicated.
as §4
(§5) Migration assays using THP1, activated T-cell (ATC) and J:CXCR1 (Jurkat cells stably transfected with CXCR1 receptor) were performed as described previously. IC50 experiments were performed at the EC80 dose of chemokine. EC80 was calculated by fitting a chemokine dose-response curve with 3 parameters (fixing the top to 100%). IC50 was calculated by fitting an inhibitor response curve with 4 parameters. R-packages used were ggupset_0.3.0, DescTools_0.99.44, and drc_3.0-1.

[7] = target: T5, CCL8 (Homo sapiens, UniProt P80075); assay: cell-based; settings: value in parentheses restating the molar figure
T5 construct: purchased Peprotech
T5 sequence (P80075 24-99): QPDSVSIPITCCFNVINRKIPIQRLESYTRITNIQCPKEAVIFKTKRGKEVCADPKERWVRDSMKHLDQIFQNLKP
Experimental: as §1
FIG. 3. […] Chemokines used are indicated by the name, followed in parenthesis by the supplier code (P in supplier code indicates Peprotech). […] All experiments were performed at EC80 doses of indicated chemokine.
as §3
The J:CXCR1 cell line was generated by transfecting Jurkat cells by electroporation with PvuI-linearized plasmid D1398 and selecting with blasticidin (Sigma-Aldrich, Cat #203350, […]). […] J:CXCR1 cells were cultured in RPMI-1640 media (Gibco), supplemented with 10% FBS and 5 mM L-Glutamine with blasticidin. For J:CXCR1 migration assays, 300,000 cells/well were added to the top chamber of a 3 μm Transwell insert (Corning) in 50 μL of migration media (RPMI-1640, 0.5% FBS, 4 mM L-Glutamine, 0.05% DMSO). The bottom chamber contained 150 μL of chemokine, with or without peptide. Cells were migrated at 37° C. in 5% CO2 for 4 hours. […]

[8] = target: T6, CXCL6 (Homo sapiens, UniProt P80162); assay: cell-based; settings: value in parentheses restating the molar figure
T6 sequence (P80162 38-114): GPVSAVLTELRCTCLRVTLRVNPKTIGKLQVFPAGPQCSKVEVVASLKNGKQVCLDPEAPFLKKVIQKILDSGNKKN
Experimental: as §2, §4, §5

Substance | binding in phage display [5] | activity in inhibiting migration of activated T cells in comparison to HD2_Y5W [6] | also measured
CVEITYFGDFGDPSQD [EB429] |  |  | Chemokines Bound [1]: CXL10, CXL11,; also recorded: SDF1, CXL13; inhibition of cell migration [2]: inhibit cell migration; inhibition of cell migration [3]: inhibit cell migration; inhibition of cell migration [4]: inhibit cell migration
DDDDWDAYAPIWCYFT [CM452] | enhanced binding | significantly enhanced activity | 
DDDDWDDYAPITCYFD [CM539] | enhanced binding | significantly enhanced activity | 
DEDDWDAYAPIWCYFT-NH2 [CM304, DEDDWDAYAPIWCYFT] | enhanced binding | significantly enhanced activity | 
EEDDYTAYAPLTCYFT-NH2 [HD2, EEDDYTAYAPLTCYFT] |  |  | IC50 [7]: 0.015 µM; IC50 [8]: 140 µM
